Measurements taken from the supplement of paper PMC4862054.

What was measured:
Conditions in all cases: 72 h
DU-4475 [1] = system: DU-4475
In short: (§1)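 Per-plate normalisation used 0.1 % DMSO and a positive kill control. Breast cancer cell lines (20 µl suspension) were seeded into 384-well plates containing compound at 5 concentrations in 10-fold steps across a compound-specific 10,000-fold range, incubated for 72 h, and read first for CellTox Green fluorescence (485/520 nm), then for CellTiter-Glo luminescence. EC50 was fitted from the dose-response curves and censored at the top concentration.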

MDA-MB-231 [2] = system: MDA-MB-231
In short: as §1

Hs578T [3] = system: Hs578T
In short: as §1

CAL-85-1 [4] = system: CAL-85-1
In short: as §1

BT-474 [5] = system: BT-474
In short: as §1

MDA-MB-453 [6] = system: MDA-MB-453
In short: as §1

MFM-223 [7] = system: MFM-223
In short: as §1

MCF-10A [8] = system: MCF-10A
In short: as §1

HCC1599 [9] = system: HCC1599
In short: as §1

HCC1937 [10] = system: HCC1937
In short: as §1

DU-4475 [11] = system: DU-4475; remark: listed apart in the source
In short: as §1

MDA-MB-231 [12] = system: MDA-MB-231; remark: listed apart in the source
In short: as §1

Hs578T [13] = system: Hs578T; remark: listed apart in the source
In short: as §1

CAL-85-1 [14] = system: CAL-85-1; remark: listed apart in the source
In short: as §1

BT-474 [15] = system: BT-474; remark: listed apart in the source
In short: as §1

MDA-MB-453 [16] = system: MDA-MB-453; remark: listed apart in the source
In short: as §1

SK-BR-3 = system: SK-BR-3
In short: as §1

MFM-223 [17] = system: MFM-223; remark: listed apart in the source
In short: as §1

MCF-10A [18] = system: MCF-10A; remark: listed apart in the source
In short: as §1

BT-549 [19] = system: BT-549
In short: as §1

HCC1599 [20] = system: HCC1599; remark: listed apart in the source
In short: as §1

HCC1937 [21] = system: HCC1937; remark: listed apart in the source
In short: as §1

DU-4475 [22] = system: DU-4475; remark: listed apart in the source
In short: (§2)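 To measure viability, fluorescence at 560/590 nm was read after 2.5 µl CellTiter-Blue had been added for 2 h at 37 °C. Cells from breast cancer lines had been seeded in 20 µl suspension onto 384-well plates pre-loaded with compound dissolved in 5 µl medium and kept for 72 h. EC50 comes from a fitted percent-inhibition dose-response curve censored at the highest concentration, after per-plate normalisation to vehicle and a positive kill control, Z'-factor checks, and removal of rows with zero drug sensitivity score.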

CAL-85-1 [23] = system: CAL-85-1; remark: listed apart in the source
In short: as §2

MDA-MB-453 [24] = system: MDA-MB-453; remark: listed apart in the source
In short: as §2

HDQ-P1 [25] = system: HDQ-P1
In short: as §2

CAL-120 [26] = system: CAL-120
In short: as §2

MDA-MB-231 [27] = system: MDA-MB-231; remark: listed apart in the source
In short: as §2

BT-474 [28] = system: BT-474; remark: listed apart in the source
In short: as §2

MDA-MB-436 [29] = system: MDA-MB-436
In short: as §2

MDA-MB-468 [30] = system: MDA-MB-468
In short: as §2

MFM-223 [31] = system: MFM-223; remark: listed apart in the source
In short: as §2

BT-549 [32] = system: BT-549; remark: listed apart in the source
In short: as §2

HCC1937 [33] = system: HCC1937; remark: listed apart in the source
In short: as §2

CAL-120 [34] = system: CAL-120; remark: listed apart in the source
In short: as §1

MDA-MB-436 [35] = system: MDA-MB-436; remark: listed apart in the source
In short: as §1

HCC1143 [36] = system: HCC1143
In short: as §1

CAL-148 [37] = system: CAL-148
In short: as §1

MDA-MB-468 [38] = system: MDA-MB-468; remark: listed apart in the source
In short: as §1

HDQ-P1 [39] = system: HDQ-P1; remark: listed apart in the source
In short: as §1

BT-549 [40] = system: BT-549; remark: listed apart in the source
In short: as §1

CAL-51 = system: CAL-51
In short: as §1

CAL-120 [41] = system: CAL-120; remark: listed apart in the source
In short: as §1

MDA-MB-436 [42] = system: MDA-MB-436; remark: listed apart in the source
In short: as §1

HCC1143 [43] = system: HCC1143; remark: listed apart in the source
In short: as §1

CAL-148 [44] = system: CAL-148; remark: listed apart in the source
In short: as §1

MDA-MB-468 [45] = system: MDA-MB-468; remark: listed apart in the source
In short: as §1

HDQ-P1 [46] = system: HDQ-P1; remark: listed apart in the source
In short: as §1

Hs578T [47] = system: Hs578T; remark: listed apart in the source
In short: as §2

CCN(CC)CCOc1ccc(C(=C(Cl)c2ccccc2)c2ccccc2)cc1 [Clomifene] was tested, and the “EC50, CellTox Green” value (DU-4475 [1]) was 5820 nM, the “EC50, CellTox Green” value (MDA-MB-231 [2]) was 1990 nM and the “EC50, CellTox Green” value (Hs578T [3]) was 2260 nM. The “EC50, CellTox Green” value (CAL-85-1 [4]) was 6280 nM, the “EC50, CellTox Green” value (BT-474 [5]) was 3470 nM and the “EC50, CellTox Green” value (MDA-MB-453 [6]) was 5670 nM. The “EC50, CellTox Green” value (MFM-223 [7]) was 522 nM, the “EC50, CellTox Green” value (MCF-10A [8]) was 1010 nM and the “EC50, CellTox Green” value (HCC1599 [9]) was 9780 nM. The “EC50, CellTox Green” value (HCC1937 [10]) was 1760 nM, the “EC50, CellTiter-Glo” value (DU-4475 [11]) was 3460 nM and the “EC50, CellTiter-Glo” value (MDA-MB-231 [12]) was 3540 nM. The “EC50, CellTiter-Glo” value (Hs578T [13]) was 2760 nM, the “EC50, CellTiter-Glo” value (CAL-85-1 [14]) was 2390 nM and the “EC50, CellTiter-Glo” value (BT-474 [15]) was 3940 nM. For the same molecule, the “EC50, CellTiter-Glo” value (MDA-MB-453 [16]) was 2910 nM, the “EC50, CellTiter-Glo” value (SK-BR-3) was 6000 nM and the “EC50, CellTiter-Glo” value (MFM-223 [17]) was 6660 nM. For the same molecule, the “EC50, CellTiter-Glo” value (MCF-10A [18]) was 9400 nM, the “EC50, CellTiter-Glo” value (BT-549 [19]) was 1980 nM and the “EC50, CellTiter-Glo” value (HCC1599 [20]) was 2830 nM. For the same molecule, the “EC50, CellTiter-Glo” value (HCC1937 [21]) was 2900 nM, the “EC50, CellTiter-Blue viability” value (DU-4475 [22]) was 7320 nM and the “EC50, CellTiter-Blue viability” value (CAL-85-1 [23]) was 9270 nM. The “EC50, CellTiter-Blue viability” value (MDA-MB-453 [24]) was 4990 nM, the “EC50, CellTiter-Blue viability” value (HDQ-P1 [25]) was 9480 nM and the “EC50, CellTiter-Blue viability” value (CAL-120 [26]) was 4600 nM. The “EC50, CellTiter-Blue viability” value (MDA-MB-231 [27]) was 2830 nM, the “EC50, CellTiter-Blue viability” value (BT-474 [28]) was 5530 nM and the “EC50, CellTiter-Blue viability” value (MDA-MB-436 [29]) was 6850 nM. For the same molecule, the “EC50, CellTiter-Blue viability” value (MDA-MB-468 [30]) was 3630 nM, the “EC50, CellTiter-Blue viability” value (MFM-223 [31]) was 6930 nM and the “EC50, CellTiter-Blue viability” value (BT-549 [32]) was 3250 nM. For the same molecule, the “EC50, CellTiter-Blue viability” value (HCC1937 [33]) was 9530 nM.

With N[C@@H](Cc1ccc(N(CCCl)CCCl)cc1)C(=O)O [Melphalan] the “EC50, CellTox Green” value (CAL-120 [34]) was 1790 nM, the “EC50, CellTox Green” value (DU-4475 [1]) was 1290 nM and the “EC50, CellTox Green” value (MDA-MB-231 [2]) was 129 nM. For the same molecule, the “EC50, CellTox Green” value (Hs578T [3]) was 1110 nM, the “EC50, CellTox Green” value (CAL-85-1 [4]) was 392 nM and the “EC50, CellTox Green” value (BT-474 [5]) was 347 nM. For the same molecule, the “EC50, CellTox Green” value (MDA-MB-436 [35]) was 2300 nM, the “EC50, CellTox Green” value (MDA-MB-453 [6]) was 419 nM and the “EC50, CellTox Green” value (HCC1143 [36]) was 2910 nM. For the same molecule, the “EC50, CellTox Green” value (CAL-148 [37]) was 354 nM, the “EC50, CellTox Green” value (MDA-MB-468 [38]) was 293 nM and the “EC50, CellTox Green” value (MFM-223 [7]) was 514 nM. The “EC50, CellTox Green” value (HDQ-P1 [39]) was 363 nM, the “EC50, CellTox Green” value (MCF-10A [8]) was 275 nM and the “EC50, CellTox Green” value (BT-549 [40]) was 778 nM. The “EC50, CellTox Green” value (HCC1599 [9]) was 726 nM, the “EC50, CellTox Green” value (HCC1937 [10]) was 613 nM and the “EC50, CellTiter-Glo” value (CAL-51) was 182 nM. The “EC50, CellTiter-Glo” value (CAL-120 [41]) was 1220 nM, the “EC50, CellTiter-Glo” value (DU-4475 [11]) was 322 nM and the “EC50, CellTiter-Glo” value (MDA-MB-231 [12]) was 237 nM. The “EC50, CellTiter-Glo” value (Hs578T [13]) was 518 nM, the “EC50, CellTiter-Glo” value (CAL-85-1 [14]) was 444 nM and the “EC50, CellTiter-Glo” value (BT-474 [15]) was 313 nM. The “EC50, CellTiter-Glo” value (MDA-MB-436 [42]) was 501 nM, the “EC50, CellTiter-Glo” value (MDA-MB-453 [16]) was 213 nM and the “EC50, CellTiter-Glo” value (HCC1143 [43]) was 739 nM. The “EC50, CellTiter-Glo” value (CAL-148 [44]) was 268 nM, the “EC50, CellTiter-Glo” value (SK-BR-3) was 247 nM and the “EC50, CellTiter-Glo” value (MDA-MB-468 [45]) was 203 nM. The “EC50, CellTiter-Glo” value (MFM-223 [17]) was 310 nM, the “EC50, CellTiter-Glo” value (HDQ-P1 [46]) was 297 nM and the “EC50, CellTiter-Glo” value (MCF-10A [18]) was 424 nM. For the same molecule, the “EC50, CellTiter-Glo” value (BT-549 [19]) was 758 nM, the “EC50, CellTiter-Glo” value (HCC1599 [20]) was 467 nM and the “EC50, CellTiter-Glo” value (HCC1937 [21]) was 235 nM. The “EC50, CellTiter-Blue viability” value (Hs578T [47]) was 222 nM and the “EC50, CellTiter-Blue viability” value (HCC1937 [33]) was 85.5 nM.
